Measurements published in PubChem BioAssay AID179 (DTP/NCI, 2004).
The source made the active and inactive calls.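 How the source made its calls: active means compounds giving half or more protection of infected cells from virus-caused growth loss, again on retest; inactive means the rest.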 Where a SMILES comes first, the peptide text is derived from it. The star is where a group is joined. X9 = CC(=O)NC1C(N*)OC(CO)C(O)C1O

System: CEM cells HIV-1 protection, formazan growth assay
Assay: NCI AIDS Antiviral Assay
Conditions: for IC50: measured here: growth of uninfected CEM cells
In short: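 Steps: treat uninfected and HIV-1-infected human CEM cells at five drug levels; quantify growth by soluble formazan; retest any compound reaching 50% protection; classify actives from the retest.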

SMILES	EC50 [µM]	IC50 [µM]	outcome
N#CC1=C(N)N(/N=C/c2ccccc2)C(c2ccccc2)C1(C#N)C#N (stereo not given)	> 200	3.89	
N#Cc1ccc(/C=C(/C(=O)c2ccccc2)c2ccccc2)cc1	> 17	9.55	
CSCCC(NC(=O)Cc1ccc(C(=O)c2ccccc2)cc1)C(=O)N1CCN(CCCCN2c3ccccc3Sc3cc(N=[N+]=[N-])ccc32)CC1 (stereo not given)	> 200	33.1	
O=c1cc(O)nc2nc(-c3ccccc3)c(-c3ccccc3)nn12	> 81.3	> 81.3	
C=C1CN(S(=O)(=O)c2ccc(C)cc2)CCCN(Cc2cccn2C)CCCN(S(=O)(=O)c2ccc(C)cc2)C1	> 200	38.9	
CCOP(=O)(OCC)/C(C#N)=C/c1cc(OC)ccc1OC	> 398	24	
O=C(NC1CCN(Cc2ccccc2)CC1)c1ccc(I)cc1	> 200	15.8	
Cc1ccc(NC(=S)N/N=C(/c2ccccc2)c2ccccn2)cc1	> 0.2	0.105	
O=Cc1cc2c(cc1-c1cc3c(cc1C=O)OCO3)OCO2	> 107	> 107	
CCN(CC)C1Oc2cc3c(cc2C(c2cccc(OC)c2O)C1C)OCO3 (stereo not given)	> 200	3.8	
CN(C)C1C(=O)C(C(=O)NCN2CCCC2)=C(O)C2(O)C(=O)C3=C(O)c4c(O)cccc4C(C)(O)C3CC12 (stereo not given)	> 63.1	53.7	
CCOC(=O)C1(O)Nc2ncncc2N(C)C1=O (stereo not given)	> 200	> 200	
Nn1nnc2ccccc21	> 200	> 200	
COc1cc(OC)c2c(c1)OC(c1ccccc1)CC2=O (stereo not given)	> 200	> 200	
COc1nc(C(=O)NNC(=O)c2nc(OC)c3ccccc3c2-c2ccccc2)c(-c2ccccc2)c2ccccc12			inactive
COc1ccc(/C(Cl)=C/c2ccc(Cl)c(Cl)c2)cc1	> 200	> 200	
CCOC(=O)C1C(c2ccc(O)c(OC)c2)c2c([nH][nH]c2=O)CC1(C)O (stereo not given)	> 200	> 200	
CCOc1ccc(Nc2nc(N)nc(N)c2N=O)cc1	> 151	15.8	
CC1(C)C2CC(c3ccncc3)ON2C(C)(C)N1O (stereo not given)	> 200	> 200	
c1ccc([P+](Cc2ccco2)(c2ccccc2)c2ccccc2)cc1	> 200	3.39	
CC(C)(C)[C@H]1CO[C@]2(c3ccccc3)[C@@H]3C[C@@H]3C(=O)N12			inactive
CCOC(=O)/C(=C/c1cccc2ccccc12)P(=O)(OCC)OCC	> 257	17	

SMILES	EC50 [µM]	IC50 [µM]	outcome
N#Cc1nc(Cc2cccs2)oc1N	> 200	> 200	
COc1ccc(C2(CN(C)C)COc3cc(OC)c(OC)cc3C2=O)cc1OC (stereo not given)			inactive
Cc1ccsc1/C=N/Nc1cc(C)c2ccccc2n1	> 200	5.37	
CSc1ccc(C2OC(=O)c3c2ccc2ccccc32)c(C)c1 (stereo not given)	> 16.2	> 16.2	
CCOC(=O)C1Cc2ccc(C)cc2C1=O (stereo not given)	> 200	110	
COC1=C(C2(O)C(=O)N(C)c3ccccc32)C(=O)C(OC)=C(C2(O)C(=O)N(C)c3ccccc32)C1=O (stereo not given)	> 53.7		
COc1ccc(OCC(=O)O)c2c1CCC(C)C2=O (stereo not given)			inactive
COC(=O)C1=Nc2c(C)nn(-c3ccccc3)c2N=C(c2ccc([N+](=O)[O-])cc2)C1	> 200	> 200	
CN(C)C(=O)Sc1nnc(C(C)(C)C)o1	> 200	> 100	
CCOC(=O)/C=C/n1cc(C)c(=O)[nH]c1=O	> 224	117	
CSP(=S)(SC)SC(C)c1ccc(C)cc1 (stereo not given)			inactive
CC(=O)N1OC2(C)c3ccccc3C1(C)c1ccccc12	> 25.7	23.4	
CC(=O)OC12C(C)=C(C)C(=O)N1c1ccccc1N2C(C)=O (stereo not given)			inactive
O=[N+]([O-])c1ccc(CN=C2NNS(=O)(=O)c3ccccc32)cc1	> 15.8	> 15.8	
C=CCOCCC(CC=C)C(=O)CC(=O)OC (stereo not given)	> 251	195	
CN1C(N)=NC(=O)/C1=C/c1ccccc1	> 200	115	
O=C(C[C@@H]1CCCN2CCCC[C@H]12)N1c2ccccc2Sc2ccc(Cl)cc21	> 200	20.9	
OCn1nc2c(C3OCCO3)cc3ccccc3n2c1=S	> 117	61.7	
CCCCCCCCCCCCCCCCC(C(=O)OC)S(=O)(=O)O (stereo not given)	> 200	123	
COc1ccc2cc1Oc1ccc(cc1)CC1c3cc(c(OC)cc3CCN1C)Oc1c(OC)c(OC)c(OC)c3c1[C@H](C2)N(C)CC3 (stereo not given in full)			inactive
O=C(O)CN(c1ccccc1)S(=O)(=O)c1ccc([N+](=O)[O-])cc1			inactive
COC(=O)C(C(=O)c1ccccc1)C(C(=O)C(=O)Nc1ccc(OC)cc1OC)C(=O)C(=O)c1ccc(C)cc1 (stereo not given)	> 457	407	

SMILES	EC50 [µM]	IC50 [µM]	outcome
Nc1[nH]nc2nc3n(c(=O)c12)CCCCC3	> 45.7	> 45.7	
CCC1Sc2cc(OC)cc3c2N(CCN3)C1=O (stereo not given)	> 200	57.5	
Cc1ccccc1C1=[N+]([O-])c2ccc(Cl)cc2C1=O			inactive
Cc1nc(Cl)nc2c1C(=O)Nc1ccccc1N2	> 52.5	26.9	
Cc1ccc(NC(=O)CC2C(=O)Nc3ccccc3S2(=O)=O)c(C)c1 (stereo not given)	> 4.07	> 4.07	
CC1=NN(c2nc(N)nc(C(C)Sc3cc(Cl)c(C)cc3S(N)(=O)=O)n2)C(C)(C)C1 (stereo not given)	> 200	42.7	
CCOC(=O)Cc1c[nH]c2ccc(N(CCO)CCO)cc12	> 200		
CCC(C)C(NC(=O)CNC(=O)C(Cc1c[nH]cn1)NC(=O)C(NC(=O)C(CS)NC(=O)C(CCC(N)=O)NC(=O)C(NC(=O)C(NC(=O)C(CO)NC(=O)C(NC(=O)C(CC(=O)NC1OC(CO)C(O)C(O)C1NC(C)=O)NC(=O)C(NC(=O)C(CS)NC(=O)C1CCCN1C(=O)CNC(=O)C(NC(=O)CN)C(C)O)C(C)O)C(C)C)C(C)O)C(C)C)C(C)O)C(=O)NC(CCCNC(=N)N)C(N)=O (stereo not given) (H-GTGPCTD(X9)VSTVQCTHGIR-NH2; configuration not given here)	> 50.1	> 50.1	
NC1=C(O)c2ccccc2C(=O)C1=O			inactive
COc1ccc(OC)c(-c2cn3c(n2)sc2ccccc23)c1	> 200	50.1	
Nc1ccc2c(SCc3ccc([N+](=O)[O-])cc3)c3ccccc3nc2c1	> 20	3.02	
CCOC(=O)C1=C(C)N2CCCOC2(C)C(C(=O)OC)C1c1cccc([N+](=O)[O-])c1 (stereo not given)	> 200	69.2	
O=C1c2cscc2C(=O)c2sccc21	> 200	23.4	
NC(CO)C(=O)N1CCCC1C(=O)NC(Cc1ccc(O)cc1)C(=O)N1CCCC1C(=O)NC(CO)C(=O)O (stereo not given) (H-SPYPS-OH; configuration not given here)	> 112	> 112	
O=S1(=O)CCCS(=O)(=O)C1CC1S(=O)(=O)CCCS1(=O)=O	> 245	> 245	
CC1(c2nc3cc(Cl)c(Cl)cc3[nH]2)CCC(C(=O)O)C(C)(C)O1 (stereo not given)	> 200	> 200	
CCOC(=O)C1=CNC(C(=O)OCC)C1c1cccn1-c1ccc(Cl)cc1[N+](=O)[O-] (stereo not given)	> 200	26.3	
COc1cc2c(cc1OC)C(Cl)C(c1ccc(Br)cc1)=C2Cl (stereo not given)			inactive
CCC(=O)N/N=C(\C=C\c1cccc(O)c1)c1sc(Nc2ccc(C)cc2[N+](=O)[O-])nc1C	> 77.6	> 77.6	
O=c1c2ncn(CCCl)c2n(-c2ccccc2)c(=S)n1-c1ccccc1	> 200	> 200	
COc1cc(CNCc2cc(OC)c(OC)c(OC)c2)cc(OC)c1OC	> 200	> 200	
C1CN2N3CCCC23C1 (stereo not given)	> 2000	> 2000	

SMILES	EC50 [µM]	IC50 [µM]	outcome
Cc1c2c(n(CCc3ccccc3)c1C)NN=C(C#N)S2(=O)=O	> 200	> 200	
Cc1ccc(Cc2c(=O)[nH]nc3ccccc23)cc1	> 39.8	> 39.8	
CCCCCCC1=C(O)C(=O)C(CCCCCC)=C(O)C1=O	> 69.2	11.7	
COc1cnc([C@H]2CCC3[C@@H]4CC=C5C[C@@H](OC(=O)CCC(=O)O)CC[C@]5(C)C4CC[C@@]32C)s1 (stereo not given in full)	> 51.3	29.5	
Cc1ccc2c(c1)[nH]c(=S)n2/C=C(/c1ccc(Cl)cc1)S(=O)(=O)Cc1ccc(Cl)cc1	> 200	> 200	
C[C@H]1OCN2C(=O)c3ccccc3SC(=O)[C@H]12	> 200	> 200	
Cn1c2ccccc2n2c3ccccc3c3nnc(N)c-3c12	> 200	28.2	
COc1ccc(N=N/C(=N\NC(=O)c2cc(Br)ccc2O)c2ccc(N(CCC#N)CCC#N)cc2OC)cc1	> 100	18.2	
COc1ccc(C2CC(=O)CC(c3ccc(OC)cc3)C23C(=O)NC(=O)NC3=O)cc1 (stereo not given)	> 100	40.7	
Clc1ccc(/C=N/Nc2nnc3c(n2)[nH]c2ccccc23)cc1	> 200	> 200	
CCCCCCCCCCCOc1ccc(C(=O)C(=O)c2ccc(OCCCCCCCCCCC)c(OCCCCCCCCCCC)c2)cc1OCCCCCCCCCCC	> 10.5	> 10.5	
NC(CSSCC(N)=NCC12CC3CC(CC(C3)C1)C2)=NCC12CC3CC(CC(C3)C1)C2	> 200	30.9	
CN1C(=O)C2(C#N)C(C)(C)C2(C#N)C1=O (stereo not given)	> 200	> 200	
COC1(O)C(=O)c2ccccc2OC1(OC)c1ccc(Cl)cc1 (stereo not given)	> 200	4.57	
Cc1cc2c(C(C)C)c(O)c(O)c(C=Nc3ccc(C(=O)NCC(=O)O)cc3)c2c(O)c1-c1c(C)cc2c(C(C)C)c(O)c(O)c(C=Nc3ccc(C(=O)NCC(=O)O)cc3)c2c1O	> 200	25.7	
NC(=O)c1ncn(CCN2CCN(C(=O)NCCCCCCNC(=O)N3CCN(CCn4cnc(C(N)=O)c4N)CC3)CC2)c1N			inactive
COc1cc(OC)c2c(c1)C(=O)c1cccc(O)c1C2=O			inactive
COC[n+]1cc2cc(OC)c(OC)cc2c2ccc3cc(OC)c(OC)cc3c21	> 31.6	> 31.6	
CC[P+](CC)(c1ccccc1)c1ccccc1	> 676	95.5	
